Laboratory results from PMC6272685, “Docking and Antiherpetic Activity of 2-Aminobenzo[de]-isoquinoline-1,3-diones” (Molecules, 2015).
Values after ≈ are worked out from the molar mass of the structure shown. Read-outs that look alike come from different tables or passages of the source.

Assays:
HSV-2 = test: cytopathic effect inhibition assay against HSV-2 in Vero cells; type: cell-based, herpes simplex virus 2 (G strain); details: 48 h, read-out: HSV-2 EC50
Protocol: (§1) Vero cells (derived from the kidney of a normal African green monkey) were obtained from the American Type Culture Collection (ATCC, Manassas, VA, USA). The viral strains used were GHSV-UL46 for HSV-1 and the G strain for HSV-2. The Vero cells were propagated in Dulbecco’s modified Eagle’s medium (DMEM) supplemented with 10% heat-inactivated foetal bovine serum (FBS), 1% L-glutamine, HEPES buffer and 50 µg/mL gentamycin. All cells were maintained at 37 °C in a humidified atmosphere with 5% CO2 and were subcultured two times a week.
(§2) The antiviral screening was performed using a cytopathic effect inhibition assay at the Regional Center for Mycology and Biotechnology (RCMB, Al-Azhar University, Cairo, Egypt). This assay was selected to show specific inhibition of a biological function, that is, a cytopathic effect in susceptible mammalian cells. In brief, monolayers of 10,000 Vero cells adhering at the bottom of the wells in a 96-well microtiter plate were incubated for 24 h at 37 °C in a humidified incubator with 5% CO2. The plates were washed with fresh DMEM and challenged with 10^4 doses of herpes simplex 1 or 2 virus, and then the cultures were simultaneously treated with two-fold serial dilutions of the tested compound, starting from 500 µg/mL and going up to about 2 µg/mL (500, 250, 125, 62.5, …, 1.95 µg/mL) in a fresh maintenance medium; following this, they were incubated at 37 °C for 48 h. An infection control, as well as an untreated Vero cell control were made in the absence of tested compounds. […] Antiviral activity was determined by the inhibition of the cytopathic effect compared to a control, that is, the protection offered by the tested compound to the cells was scored. Three independent experiments were assessed, each containing four replicates per treatment.
(§3) After the incubation period, the media was aspirated, and then the cells were stained with a 1% crystal violet solution for 30 min. Thereafter, all excess stain was removed by rinsing the plates with tap water. The plates were allowed to dry, and then glacial acetic acid (30%) was added to all wells and mixed thoroughly. The absorbance of the plates was measured after gentle shaking on a microplate reader (Tecan Inc., Morrisville, NC, USA), at 590 nm. The viral inhibition rate was calculated as follows: [(ODtv − ODcv)/(ODcd − ODcv)] × 100% where ODtv, ODcv and ODcd indicate the absorbance of the tested compounds with virus-infected cells, the absorbance of the virus control and the absorbance of the cell control, respectively.
EC50 values were determined directly from the curve obtained by plotting the inhibition of the virus yield against the concentration of the samples. The selectivity index (SI) was calculated from the ratio of CC50 to EC50 in order to determine whether each compound had sufficient antiviral activity that exceeded its level of toxicity. This index is referred to as a therapeutic index, and it was also used to determine whether a compound warranted further study.

[1] = cytotoxicity evaluation using viability assay (crystal violet); type: cell-based, African green monkey; details: African green monkey, Vero cells
Protocol: as §1
The Vero cell lines in the cytotoxicity assay were seeded in 96-well plates at a cell concentration of 1 × 10^4 cells per well in 100 µL of the growth medium. Fresh medium containing different concentrations of the tested sample was added after 24 h of seeding. Serial two-fold dilutions of the tested compound were added to confluent cell monolayers dispensed into 96-well, flat-bottomed microtiter plates (Falcon, Jersey, NJ, USA) using a multichannel pipette. The microtiter plates were incubated at 37 °C in a humidified incubator with 5% CO2 for a period of 48 h. Three wells were used for each concentration of the tested sample. Control cells were incubated without test samples and with or without DMSO. The small percentage of DMSO present in the wells (maximal 0.1%) was not found to affect the experiment.
After the end of the incubation period, the viable cell yield was determined by a colorimetric method. In brief, the process of treatment the media with crystal violet solution and measurement of absorbance at 590 nm using a microplate reader was mentioned above. The absorbance was proportional to the number of surviving cells in the culture plate. All the results were corrected for background absorbance detected in wells without added stain. Treated samples were compared with the cell control in the absence of the tested compounds. All experiments were carried out in triplicate. The cell cytotoxicity effect of each tested compound was calculated.
Statistics were done using a one-way ANOVA test, and the percentage cell viability was calculated using Microsoft Excel®, as follows: % Cell viability = [(Mean Abscontrol− Mean Abstest metabolite)/Mean Abscontrol] × 100 where Abs equals the absorbance at 590 nm. The CC50 was estimated from graphic plots and the STATA statistical analysis package was used for the drawing of the dose response curve, in order to calculate CC50. Concerning antiviral evaluation, all experiments and data analysis were performed in RCMB, Al-Azhar University, Cairo, Egypt.

HSV-1 = test: cytopathic effect inhibition assay against HSV-1 in Vero cells; type: cell-based, herpes simplex virus 1 (GHSV-UL46); details: Human alphaherpesvirus 1, Vero, 48 h, read-out: HSV-1 EC50
Protocol: as §1, §2, §3
EC50 values were determined directly from the curve obtained by plotting the inhibition of the virus yield against the concentration of the samples. […] This index is referred to as a therapeutic index, and it was also used to determine whether a compound warranted further study.

Structure (SMILES) | EC50 (HSV-2; Human alphaherpesvirus 2, Vero) [mg/L] | CC50 at 48 h [1] [mg/L] | EC50 (HSV-1) [mg/L] | EC50 (HSV-2; Human alphaherpesvirus 2, Vero cells, cytopathic effect inhibition) [mg/L]
NN1C(=O)c2cccc3cccc(c23)C1=O [Parent, 2-amino-1H-benzo[de]isoquinoline-1,3-dione] | > 500 | 320 ± 24 (≈ 1510 µM) | > 500 | –
Nc1nc2c(ncn2COCCO)c(=O)[nH]1 [Acyclovir, reference compound] | – | 600 ± 18 (≈ 2660 µM) | 1.8 ± 0.2 (≈ 7.99 µM) | 3.4 ± 0.6 (≈ 15.1 µM)
